≈ marks a conversion by molar mass, not a printed value.
Columns and labels:
[1] = Powder bulk density of ibuprofen / 10% P407 powders; assay type: physicochemical; settings: ibuprofen combined with 10% Poloxamer 407, not subjected to heat and shear
Method: The screw configurations are shown below, where “C” represents conveying elements and “K” represents kneading elements: For each experiment, mean residence time, powder temperature, and powder bulk density were measured.

[2] = 50 mg powder, 10% cetylpyridinium chloride, 100 rpm, 900 ml deionized water; FIG. 7
Method: Dissolution testing was performed on the following materials used or prepared herein in order to determine the percentage of carbamazepine released over time: • 10% cetylpyridinium chloride Treated • 10% cetylpyridinium chloride Physical Mix • Carbamazepine, no surfactant
In each test, 50 mg of powder was added to a dissolution vessel, and dissolution was conducted using the USP paddle method at 100 rpm in 900 ml of a buffer medium of deionized water.

physchem = settings: pH 1.8, simulated gastric fluid
Method: (§1) For each test, 12 mg of powder was added to a dissolution vessel, and dissolution was conducted using the USP paddle method at 75 rpm in 900 ml of a buffer medium comprising 0.02 M hydrochloric acid and having a pH of 1.8.
(§2) In each test, 12 mg of powder was added to a dissolution vessel, and dissolution was conducted using the USP paddle method at 75 rpm in 900 ml of a buffer medium comprising 0.02 M hydrochloric acid and having a pH of 1.8.

[3] = Dissolution testing of ibuprofen/polyoxyethylene stearate powders (USP paddle method); assay type: physicochemical; settings: 12 mg powder, Ibuprofen 2, 10% polyoxyethylene stearate, 75 rpm, 900 ml 0.02 M hydrochloric acid pH 1.8; FIG. 6
Method: as §2

[4] = Dissolution testing of ibuprofen/poloxamer powders (USP paddle method); assay type: physicochemical; settings: 12 mg powder, 75 rpm, 900 ml 0.02 M hydrochloric acid pH 1.8; Ibuprofen 1, 2, 3; FIGS. 2-4
Method: as §1

For `CC(C)Cc1ccc(C(C)C(=O)O)cc1` (stereo not shown) [Ibuprofen 2, ibuprofen], the “Powder Bulk Density of 10% P407 Physical Mix” value [1] was 0.374 g/ml.

In the case of `NC(=O)N1c2ccccc2C=Cc2ccccc21` [Uncoated carbamazepine, carbamazepine], the “dissolution rate (percentage of carbamazepine released over time)” value [2] is reported as “poorest dissolution rate”.

With `CC(C)Cc1ccc(C(C)C(=O)O)cc1` (stereo not shown) [Ibuprofen 3, ibuprofen] the “Powder Bulk Density of 10% P407 Physical Mix” value [1] was 0.382 g/ml.

With `CC(C)Cc1ccc(C(C)C(=O)O)cc1` (stereo not shown) [Uncoated ibuprofen, ibuprofen] the solubility (physchem) was 53 µg/mL (≈ 257 µM), the “dissolution rate (percentage of ibuprofen released over time)” value [3] was “poorest dissolution rate” and the “dissolution rate (percentage of ibuprofen released over time)” value [4] was “slowest dissolution rate”.

With `CC(C)Cc1ccc(C(C)C(=O)O)cc1` (stereo not shown) [Ibuprofen 1, ibuprofen] the “Powder Bulk Density of 10% P407 Physical Mix” value [1] was 0.320 g/ml.
